Holding throughout (assay type): in vivo
Data set [1] concerns Dandelion (Taraxacum officinale). The experiment in a line: Soil drench herbicidal test, dandelion. The conditions noted are these: 40 mL of 0.5% soil drench, FIG. 12; words. As for the experimental part: Dandelion (Taraxacum officinale) seeds were obtained from the Department of Agronomy at Iowa State University. Individual seeds were sown for each pot (6″ wide×4.5″ deep) with approximately 800 mL of soil for each plan. Only plants that germinated were used for the study. Plants were treated 1-2 weeks post emergence. Plants were watered every 2-3 days as needed. Giant foxtail (Setaria faberi) seeds were obtained from the Department of Agronomy at Iowa State University. Three seeds were sown for each pot (6″ wide×4.5″ deep) with approximately 800 mL of soil for each plan. Only plants that germinated were used for the study. Plants were treated 1-2 weeks post emergence. Plants were watered every 2-3 days as needed.
Formulations of the various active ingredients were created using the disclosed pogostone derivatives and Triton-X 100 to aid in the solvation of the active ingredient. Formulations consisted of 0.5% active ingredient by weight. […] 40 mL of formulation ([…] active ingredient) was applied to each pot containing approximately 3-5 plants per pot at 2-3 weeks after emergence. Observations were performed 3 days and 2 weeks after soil drench to determine the effects of the treatments on the various types and stages of plants. […]

Data set [2] concerns adult female Aedes aegypti mosquitoes. The experiment in a line: Formula 13 after pre-treatment with detoxification enzyme inhibitors (FIG. 10). As for the experimental part:
Combinations of 2000 μg/mL Formula 13 and various detoxification enzyme inhibitors were applied to adult female mosquitoes in a volume of 0.2 μL to identify which detoxification pathway was most responsible for clearance of bioactive pogostone from the insect. A dose of 0.2 uL of either 1000 μg/mL of S,S,S-tributyl phosphorotrithioate (DEF) or 5000 μg/mL piperonyl butoxide (PBO) or 5000 μg/mL diethyl maleate (DEM) was applied 4 hours before a dose of 0.2 uL 2000 μg/mL of Formula 13 was applied to adult Aedes aegypti. […] The concentrations of inhibitors were chosen due to their inability to cause toxicity on their own at this application rate. The concentration of Formula 13 was chosen as the approximate LD25 of this compound against adult female Aedes aegypti mosquitoes. Combinations that caused statistically higher levels of mortality than pyrone 7 applied alone were considered informative. The goal of this exploration was to determine which processes might be most valuable in the detoxification of these derivatives.

Data set [3] has as its system Western corn rootworm larvae. Put plainly: Seed treatment testing: rootworm survival (FIG. 2A). The conditions noted are these: seeds coated with compound; 1 week after introduction of larvae. The procedure: (§1) Corn seeds used were a non-transgenic type strain of corn to prevent confounding results. Germination typically occurred between 2-4 days after moistening.
(§2) Seed coating was accomplished by placing 20 g of corn seeds or soybeans into a container with approximately 1 mL of a 1:5 Elmer's glue:water solution with a small amount of Triton-X100™ (present 100 μL/5 mL). For solid compounds, 0.25 g of compound was subsequently introduced into the container. This mixture of seeds, Elmer's Glue/water/Triton-X 100™ solution, and active compound was mixed thoroughly until seeds were coated with the active ingredient.
(§3) For each treatment, 0.25 g of liquid compound was dissolved in 5 mL of hexane. 0.25 g of Hi-Sil 233 silica gel was introduced into this mixture of hexane and active ingredient. The solvent was blown-off using a rotary evaporator, allowing for the compound to adsorb to the silica gel. This 0.5 g of silica gel:active ingredient was then used as the solid material used for coating the seeds. The seeds were then coated with the same method used for solid compound.
(§4) Three corn seeds coated in pogostone derivative treatments were germinated in small, 2-oz. […] Germination of seedlings was also recorded at the end of the assay by counting the total number of seeds that produced roots out of the 3 seeds in each container/replicate and recorded as total percentage germination. […]

In data set [4] the test system is 3-4 instar Aedes aegypti larvae. The experiment in a line: Mosquito larvicide bioassay. As for the experimental part: Mosquito larvicide bioassays were performed by introducing various concentrations of test compounds (pyrone derivatives and rotenone) into acetone at various concentrations. 200 uL of these solutions were added to individual cups containing 10, 3-4 instar Aedes aegypti larvae and 25 mL of DI water. 2 mg of Tetramin™ was provided to each cup as a food source. […] Ataxia was used as the indicator of larval mortality. At least 5 concentrations were used which caused between 10 and 90% mortality. LC50 values were calculated using a PROC PROBIT model in SAS 9.4.

The test system of another data set is corn seeds. Put plainly: Seed treatment testing: survival/germination of treated corn seeds (FIG. 2B). As to conditions: seeds coated with compound; 1 week after introduction of larvae. As for the experimental part:
as §1, §2, §3, §4

Molecules are shown by their SMILES. “Also recorded” adds a separate entry of the source.

By LC50 is commonly meant the concentration lethal to half of the exposed cells or organisms. Turning to `CC(C)CCC(=O)c1c(O)c2ccccc2oc1=O` [Formula 13], the phytotoxicity in dandelion entry in data set [1] is reported as “little phytotoxicity”. For the same compound, the “toxicity of Formula 13 after DEF (inhibition of esterases)” value in data set [2] (1000 μg/mL DEF 4 hours before 2000 μg/mL Formula 13, 0.2 uL each) is “significantly increased the toxicity of Formula 13”. Moreover, in data set [2] (5000 μg/mL DEM 4 hours before 2000 μg/mL Formula 13, 0.2 uL each), the “toxicity of Formula 13 after DEM (decreasing glutathione S-transferase activity)” value is recorded as “second-most important enzyme system”. Besides, the “toxicity of Formula 13 after PBO (inhibition of monooxygenases)” value in data set [2] (5000 μg/mL PBO 4 hours before 2000 μg/mL Formula 13, 0.2 uL each) was “most significant for increasing the toxicity of Formula 13”. In data set [2] (0.2 uL applied topically to adult female Aedes aegypti), the “approximate LD25 (concentration applied)” value is around 2000 µg/mL. The “western corn rootworm mortality” value in data set [3] is “significant western corn rootworm mortality”. In data set [4] (Aedes aegypti, larval mortality at 24 hours, in 25 mL DI water, read-out: LC50), the LC50 came out at 1.34 µg/mL. Moreover, the “larvicidal properties compared with natural pogostone or rotenone” value in data set [4] (words) is listed as “possessed better larvicidal properties than natural pogostone; also recorded: possessed better larvicidal properties than rotenone; also recorded: performed as well as the rotenone”. The “phytotoxicity to treated corn seeds” value in the data set on corn seeds is reported as “did not; also recorded: do not cause phytotoxicity”.
